Source: ChEMBL document CHEMBL1240486, “Novel N-methylated 8-oxoisoguanines from Pacific sponges with diverse neuroactivities” (J Med Chem, 2010)
Active and inactive are the calls of the source. The calls are words filed in the database; no cut-off is given here.

Columns and labels:
Rattus norvegicus [1] = species: Rattus norvegicus; experiment: Displacement of [3H]AMPA from AMPA receptor in Sprague-Dawley rat synaptic membranes at 10 uM after 1 hr; format: cell membranes; details: Membrane
[2] = biological target: GABA A receptor alpha-4/beta-3/gamma-2 (Homo sapiens) (UniProt P18507+P28472+P48169); experiment: Antagonist activity at recombinant alpha-4-beta-3-gamma-2S receptor expressed in HEK 293-T/17 cells assessed as GABA-induced current at 30 uM by whole-cell recording relative to control; format: functional, cell-based; parameters: scale not given: the % may be the effect or the level left; details: HEK293
Rattus norvegicus [3] = species: Rattus norvegicus; experiment: Displacement of [3H]muscimol from GABA binding site of GABAA receptor in rat brain membrane at <10 uM; format: cell membranes
[4] = biological target: 5-hydroxytryptamine receptor 1E (Homo sapiens, UniProt P28566); experiment: Binding affinity to 5HT1E receptor
Rattus norvegicus [5] = species: Rattus norvegicus; experiment: Inhibition of GABAA receptor-mediated miniature inhibitory postsynaptic current in rat hippocampal neurons at 10 uM after 5 mins by whole-cell voltage clamp assay relative to baseline; format: tissue-based; details: Hippocampus
Rattus norvegicus [6] = species: Rattus norvegicus; experiment: Inhibition of GABAA receptor-mediated miniature excitatory postsynaptic current in rat hippocampal neurons assessed as EPSC bursts at 10 uM after 5 mins by whole-cell voltage clamp assay (Rvb 0.69 +/- 0.21 Hz); format: tissue-based; details: Hippocampus
Mu-type opioid receptor = Mu-type opioid receptor (Homo sapiens, UniProt P35372); experiment: Binding affinity to mu opioid receptor
[7] = biological target: T1, Alpha-1D adrenergic receptor (Homo sapiens, UniProt P25100); experiment: Binding affinity to adrenergic Alpha-1D receptor
T1 sequence (P25100 whole entry): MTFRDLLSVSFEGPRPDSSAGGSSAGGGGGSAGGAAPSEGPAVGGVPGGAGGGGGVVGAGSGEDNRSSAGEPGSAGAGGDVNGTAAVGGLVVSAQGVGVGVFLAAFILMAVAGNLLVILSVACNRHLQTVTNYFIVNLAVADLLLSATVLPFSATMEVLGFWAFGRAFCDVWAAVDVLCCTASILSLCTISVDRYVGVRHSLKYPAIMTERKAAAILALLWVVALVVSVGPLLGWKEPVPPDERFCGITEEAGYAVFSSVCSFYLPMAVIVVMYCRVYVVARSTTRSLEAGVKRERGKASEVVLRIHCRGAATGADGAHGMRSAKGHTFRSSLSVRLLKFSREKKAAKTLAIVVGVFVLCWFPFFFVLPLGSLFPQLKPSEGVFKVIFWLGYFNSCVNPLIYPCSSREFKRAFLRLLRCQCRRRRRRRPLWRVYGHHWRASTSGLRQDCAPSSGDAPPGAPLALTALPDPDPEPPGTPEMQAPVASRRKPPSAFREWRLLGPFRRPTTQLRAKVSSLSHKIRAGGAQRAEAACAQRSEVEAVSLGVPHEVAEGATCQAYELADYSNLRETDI

Mus musculus [8] = experiment: Neurotoxicity in icv dosed ddY mouse assessed as 50% maximal convulsant dose measured for 60 mins; format: toxicity, organism-based; details: in vivo, icv_or_intrathecal, 1 h
[9] = biological target: T2, Alpha-1A adrenergic receptor (Homo sapiens, UniProt P35348); experiment: Binding affinity to adrenergic alpha1A receptor
T2 sequence (P35348 whole entry): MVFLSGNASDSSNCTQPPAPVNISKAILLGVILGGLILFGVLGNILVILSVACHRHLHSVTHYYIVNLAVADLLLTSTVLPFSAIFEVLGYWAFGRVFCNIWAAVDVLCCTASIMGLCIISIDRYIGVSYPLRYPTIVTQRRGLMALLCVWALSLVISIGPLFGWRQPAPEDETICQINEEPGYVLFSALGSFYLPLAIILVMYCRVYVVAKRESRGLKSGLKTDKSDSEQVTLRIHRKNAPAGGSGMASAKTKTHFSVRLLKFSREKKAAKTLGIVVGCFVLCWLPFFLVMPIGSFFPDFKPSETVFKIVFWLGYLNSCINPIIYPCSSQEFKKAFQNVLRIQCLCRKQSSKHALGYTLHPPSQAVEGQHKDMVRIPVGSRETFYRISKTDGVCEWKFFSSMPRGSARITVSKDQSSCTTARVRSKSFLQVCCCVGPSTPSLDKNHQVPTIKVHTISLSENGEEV

Rattus norvegicus [10] = species: Rattus norvegicus; experiment: Inhibition of GABAA receptor-mediated postsynaptic current in rat hippocampal neurons at 30 uM after 5 mins by whole-cell voltage clamp assay; format: tissue-based; details: Hippocampus
[11] = biological target: T3, Alpha-1B adrenergic receptor (Homo sapiens, UniProt P35368); experiment: Binding affinity to adrenergic Alpha-1B receptor
T3 sequence (P35368 whole entry): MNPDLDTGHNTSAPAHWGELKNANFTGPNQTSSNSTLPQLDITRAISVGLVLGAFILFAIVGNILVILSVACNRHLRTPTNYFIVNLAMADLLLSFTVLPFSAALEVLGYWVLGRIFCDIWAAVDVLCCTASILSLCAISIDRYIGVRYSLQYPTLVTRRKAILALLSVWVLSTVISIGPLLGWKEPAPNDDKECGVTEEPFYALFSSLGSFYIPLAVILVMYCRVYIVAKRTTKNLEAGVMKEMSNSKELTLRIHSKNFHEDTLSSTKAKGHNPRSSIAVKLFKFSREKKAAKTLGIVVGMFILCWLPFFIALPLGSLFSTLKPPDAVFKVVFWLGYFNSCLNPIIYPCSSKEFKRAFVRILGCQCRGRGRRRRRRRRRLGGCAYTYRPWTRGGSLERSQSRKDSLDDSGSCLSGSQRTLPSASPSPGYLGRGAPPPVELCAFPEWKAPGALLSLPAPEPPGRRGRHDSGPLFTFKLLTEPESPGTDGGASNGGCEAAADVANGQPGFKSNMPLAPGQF

Mus musculus [12] = experiment: Neurotoxicity in ddY mouse assessed as changes in behavioral activity at >4 nmol/mouse, icv measured for 60 mins; format: toxicity, organism-based; details: in vivo, icv_or_intrathecal, 1 h
[13] = biological target: Glutamate NMDA receptor (Rattus norvegicus) (UniProt P35439+Q00959+Q00960+Q00961+Q62645+Q8VHN2+Q9R1M7); experiment: Displacement of [3H]CGP39653 from NMDA receptor in Sprague-Dawley rat synaptic membranes at 10 uM after 1 hr; format: cell membranes; details: Membrane
[14] = biological target: Glutamate receptor 4 (Homo sapiens) (UniProt P48058); experiment: Antagonist activity at recombinant GluA4 receptor expressed in HEK 293-T/17 cells assessed as glutamate-induced current at 100 uM by whole-cell recording relative to control; format: functional, cell-based; parameters: scale not given: the % may be the effect or the level left; details: HEK293
[15] = biological target: Kappa-type opioid receptor (Homo sapiens, UniProt P41145); experiment: Binding affinity to kappa opioid receptor
[16] = Inhibition of GABAA receptor-mediated miniature inhibitory postsynaptic current in rat hippocampal neurons at 10 uM after 5 mins by whole-cell voltage clamp assay relative to baseline in presence of nonselective adenosine receptor antagonist CGS-15943; format: functional; details: Hippocampus
Mus musculus [17] = species: Mus musculus; experiment: Inhibition of GABAA receptor-mediated inhibitory synaptic currents in juvenile mouse CA1 neurons at 30 uM by whole-cell voltage clamp assay in presence of prazosin
Mus musculus [18] = species: Mus musculus; experiment: Inhibition of GABAA receptor-mediated inhibitory synaptic currents in juvenile mouse CA1 neurons at 30 uM by whole-cell voltage clamp assay in presence of SCH-50911
Rattus norvegicus [19] = species: Rattus norvegicus; experiment: Effect on GABAA receptor-mediated spontaneous excitatory postsynaptic current in rat hippocampal neurons assessed as frequency of sEPSC bursts at 10 uM after 5 mins by whole-cell voltage clamp assay (reference value: 0.84 +/- 0.12 Hz); format: tissue-based; details: Hippocampus
Rattus norvegicus [20] = species: Rattus norvegicus; experiment: Inhibition of GABAA receptor-mediated inhibitory synaptic currents in rat hippocampal neurons assessed as sEPSC bursts at 10 uM after 5 mins by whole-cell voltage clamp assay (reference value: 5.6 +/- 1.6 Hz); format: tissue-based; details: Hippocampus
Rattus norvegicus [21] = species: Rattus norvegicus; experiment: Displacement of [3H]kainate from kainate receptor in Sprague-Dawley rat synaptic membranes at 10 uM after 1 hr; format: cell membranes; details: Membrane
Rattus norvegicus [22] = species: Rattus norvegicus; experiment: Inhibition of GABAA receptor-mediated postsynaptic current in rat hippocampal neurons at 10 uM after 5 mins by whole-cell voltage clamp assay; format: tissue-based; details: Hippocampus
Mus musculus [23] = species: Mus musculus; experiment: Inhibition of excitatory postsynaptic current in juvenile mouse CA1 neurons at 30 uM by whole-cell voltage clamp assay
[24] = biological target: Neuronal acetylcholine receptor; alpha3/beta2 (Homo sapiens, UniProt P17787+P32297); experiment: Binding affinity to nicotinic alpha3beta2 receptor receptor; format: protein-complex assay
Mus musculus [25] = experiment: Neurotoxicity in ddY mouse assessed as changes in behavioral activity at 1 nmol/mouse, icv measured for 60 mins; format: toxicity, organism-based; details: in vivo, icv_or_intrathecal, 1 h
Rattus norvegicus [26] = species: Rattus norvegicus; experiment: Inhibition of GABAA receptor-mediated inhibitory synaptic currents in rat hippocampal neurons assessed as sEPSC bursts at 10 uM measured after compound washout by whole-cell voltage clamp assay; format: tissue-based; details: Hippocampus
Rattus norvegicus [27] = species: Rattus norvegicus; experiment: Displacement of [3H]flunitrazepam from benzodiazepine binding site of GABAA receptor in rat brain membrane at <10 uM; format: cell membranes
Mus musculus [28] = species: Mus musculus; experiment: Inhibition of GABAA receptor-mediated inhibitory synaptic currents in juvenile mouse CA1 neurons at 30 uM by whole-cell voltage clamp assay
Mus musculus [29] = experiment: Toxicity in ddY mouse assessed as death at 0.1 umol, icv; format: organism-based; details: in vivo, icv_or_intrathecal
Mus musculus [30] = experiment: Neurotoxicity in ddY mouse assessed as changes in behavioral activity at 25 to 50 nmol/mouse, icv measured for 60 mins; format: toxicity, organism-based; details: in vivo, icv_or_intrathecal, 1 h
Mus musculus [31] = experiment: Neurotoxicity in ddY mouse assessed as induction of occasional tonic extension of forelimbs and weakness of lower bodies at 0.1 umol, icv measured for 60 mins; details: in vivo, icv_or_intrathecal, 1 h
Mus musculus [32] = experiment: Neurotoxicity in ddY mouse assessed as changes in behavioral activity at >75 nmol/mouse, icv measured for 60 mins; format: toxicity, organism-based; details: in vivo, icv_or_intrathecal, 1 h
Mus musculus [33] = experiment: Neurotoxicity in ddY mouse assessed as changes in behavioral activity at 100 nmol/mouse, icv measured for 60 mins; format: toxicity, organism-based; details: in vivo, icv_or_intrathecal, 1 h
Mus musculus [34] = experiment: Neurotoxicity in ddY mouse assessed as changes in behavioral activity at 14 nmol/mouse, icv measured for 60 mins; format: toxicity, organism-based; details: in vivo, icv_or_intrathecal, 1 h
Mus musculus [35] = experiment: Neurotoxicity in ddY mouse assessed as induction of convulsions at 0.05 to 0.1 umol, icv measured for 60 mins; format: toxicity, organism-based; details: in vivo, icv_or_intrathecal, 1 h
Mus musculus [36] = experiment: Neurotoxicity in ddY mouse assessed as changes in behavioral activity at 30 to 110 nmol/mouse, icv measured for 60 mins; format: toxicity, organism-based; details: in vivo, icv_or_intrathecal, 1 h

Kappa-type opioid receptor, sequence (P41145 whole entry): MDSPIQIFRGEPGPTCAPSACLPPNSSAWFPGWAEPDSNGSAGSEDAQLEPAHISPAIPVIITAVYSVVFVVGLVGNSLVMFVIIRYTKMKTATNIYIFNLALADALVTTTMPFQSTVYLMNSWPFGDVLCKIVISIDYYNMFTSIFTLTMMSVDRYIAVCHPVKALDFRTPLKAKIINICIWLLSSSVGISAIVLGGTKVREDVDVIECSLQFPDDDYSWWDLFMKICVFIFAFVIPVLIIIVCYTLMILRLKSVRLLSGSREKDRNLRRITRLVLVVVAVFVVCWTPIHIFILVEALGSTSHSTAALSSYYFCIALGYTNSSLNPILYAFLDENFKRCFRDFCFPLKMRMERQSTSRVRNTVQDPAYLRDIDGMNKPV
Glutamate receptor 4 (Homo sapiens), sequence (P48058 whole entry): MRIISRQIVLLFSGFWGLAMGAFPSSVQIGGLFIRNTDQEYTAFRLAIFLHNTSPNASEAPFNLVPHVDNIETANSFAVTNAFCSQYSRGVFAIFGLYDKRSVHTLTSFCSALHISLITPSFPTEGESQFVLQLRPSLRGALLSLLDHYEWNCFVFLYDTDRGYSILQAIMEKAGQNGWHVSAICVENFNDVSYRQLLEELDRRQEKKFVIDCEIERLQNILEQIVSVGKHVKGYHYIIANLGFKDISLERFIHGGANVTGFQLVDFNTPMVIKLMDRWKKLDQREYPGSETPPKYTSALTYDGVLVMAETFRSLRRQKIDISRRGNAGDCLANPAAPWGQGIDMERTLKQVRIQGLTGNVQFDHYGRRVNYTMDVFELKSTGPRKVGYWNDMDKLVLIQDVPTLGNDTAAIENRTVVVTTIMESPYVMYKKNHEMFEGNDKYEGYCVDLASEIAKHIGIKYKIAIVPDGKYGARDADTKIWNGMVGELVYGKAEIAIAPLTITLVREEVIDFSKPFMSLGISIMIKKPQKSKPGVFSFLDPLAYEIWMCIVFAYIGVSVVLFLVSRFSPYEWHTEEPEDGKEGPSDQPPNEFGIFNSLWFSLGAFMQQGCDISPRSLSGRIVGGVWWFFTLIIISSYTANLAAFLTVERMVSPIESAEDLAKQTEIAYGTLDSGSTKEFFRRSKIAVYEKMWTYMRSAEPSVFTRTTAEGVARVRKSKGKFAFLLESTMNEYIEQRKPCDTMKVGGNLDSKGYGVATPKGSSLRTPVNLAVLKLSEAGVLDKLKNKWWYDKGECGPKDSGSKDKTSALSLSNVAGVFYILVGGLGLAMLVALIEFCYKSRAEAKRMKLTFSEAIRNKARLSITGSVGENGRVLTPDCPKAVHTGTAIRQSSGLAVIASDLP
Mu-type opioid receptor, sequence (P35372 whole entry): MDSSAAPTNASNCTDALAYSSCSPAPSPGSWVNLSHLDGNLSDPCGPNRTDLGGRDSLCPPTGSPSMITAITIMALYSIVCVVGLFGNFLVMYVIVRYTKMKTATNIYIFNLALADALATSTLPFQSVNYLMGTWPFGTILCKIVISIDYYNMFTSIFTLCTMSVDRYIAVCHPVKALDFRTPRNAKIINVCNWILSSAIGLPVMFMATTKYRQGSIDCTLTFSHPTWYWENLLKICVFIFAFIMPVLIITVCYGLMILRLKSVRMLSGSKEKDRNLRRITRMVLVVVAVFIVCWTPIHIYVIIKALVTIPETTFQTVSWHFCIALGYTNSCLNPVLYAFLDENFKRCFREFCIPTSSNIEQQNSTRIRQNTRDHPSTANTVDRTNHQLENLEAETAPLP
5-hydroxytryptamine receptor 1E, sequence (P28566 whole entry): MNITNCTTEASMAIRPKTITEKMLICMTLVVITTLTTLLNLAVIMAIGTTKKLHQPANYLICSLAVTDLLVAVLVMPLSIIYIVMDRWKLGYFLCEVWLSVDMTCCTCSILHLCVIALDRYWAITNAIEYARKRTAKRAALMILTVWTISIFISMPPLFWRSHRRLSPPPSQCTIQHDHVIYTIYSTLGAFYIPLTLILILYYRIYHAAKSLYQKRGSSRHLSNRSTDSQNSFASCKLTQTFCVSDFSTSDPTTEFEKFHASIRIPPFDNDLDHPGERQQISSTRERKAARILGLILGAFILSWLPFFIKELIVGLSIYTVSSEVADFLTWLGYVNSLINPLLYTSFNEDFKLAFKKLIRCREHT
Neuronal acetylcholine receptor; alpha3/beta2, sequence (P17787 whole entry): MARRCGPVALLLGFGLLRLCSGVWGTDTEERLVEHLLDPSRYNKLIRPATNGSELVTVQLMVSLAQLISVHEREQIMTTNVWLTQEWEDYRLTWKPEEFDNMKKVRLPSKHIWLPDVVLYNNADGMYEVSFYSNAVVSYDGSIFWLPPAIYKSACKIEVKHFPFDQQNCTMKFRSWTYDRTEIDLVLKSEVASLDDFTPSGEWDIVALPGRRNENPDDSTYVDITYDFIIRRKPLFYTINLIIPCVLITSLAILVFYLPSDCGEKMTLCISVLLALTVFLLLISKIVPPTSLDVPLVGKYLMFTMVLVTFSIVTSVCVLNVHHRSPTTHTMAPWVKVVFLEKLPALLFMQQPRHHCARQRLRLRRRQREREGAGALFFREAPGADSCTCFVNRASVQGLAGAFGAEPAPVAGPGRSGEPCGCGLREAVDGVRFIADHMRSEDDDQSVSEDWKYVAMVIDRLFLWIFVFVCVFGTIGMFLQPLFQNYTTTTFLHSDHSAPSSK
Neuronal acetylcholine receptor; alpha3/beta2, sequence (P32297 whole entry): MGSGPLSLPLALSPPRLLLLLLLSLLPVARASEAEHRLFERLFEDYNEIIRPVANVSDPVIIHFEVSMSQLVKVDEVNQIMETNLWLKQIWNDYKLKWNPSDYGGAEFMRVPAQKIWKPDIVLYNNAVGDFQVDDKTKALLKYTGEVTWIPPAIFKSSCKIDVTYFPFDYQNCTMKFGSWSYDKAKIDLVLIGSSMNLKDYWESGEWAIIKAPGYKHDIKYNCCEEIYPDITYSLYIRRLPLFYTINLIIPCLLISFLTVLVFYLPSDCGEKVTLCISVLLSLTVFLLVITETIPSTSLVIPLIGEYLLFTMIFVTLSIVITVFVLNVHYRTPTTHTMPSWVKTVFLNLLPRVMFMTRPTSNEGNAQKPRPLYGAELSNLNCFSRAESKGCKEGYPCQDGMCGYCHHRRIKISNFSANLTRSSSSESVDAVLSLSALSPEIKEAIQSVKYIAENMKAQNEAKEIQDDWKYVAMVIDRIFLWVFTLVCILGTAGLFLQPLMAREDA

Cl.Cn1c(=O)[nH]c2c([nH]c(=O)n2C)c1=N
inhibition (Rattus norvegicus [1]): inactive | Activity [2]: 93% | inhibition (Rattus norvegicus [3]): inactive | Ki [4]: 2900 nM | inhibition (Rattus norvegicus [5]): 32% | Activity (Rattus norvegicus [6]): 0.95 Hz | Ki (Mu-type opioid receptor): 8900 nM | Ki [7]: 497 nM | Activity (Mus musculus [8]): 2.4 nmol | Ki [9]: 885 nM | inhibition (Rattus norvegicus [10]): Active | Ki [11]: 758 nM | Activity (Mus musculus [12]): Toxic | inhibition [13]: inactive | Activity [14]: 100% | Ki [15]: 1800 nM | inhibition at 10 µM [16]: 29.6% | inhibition (Mus musculus [17]): Active | inhibition (Mus musculus [18]): Active | Activity (Rattus norvegicus [19]): 0.9 Hz | Activity (Rattus norvegicus [20]): 3.6 Hz | inhibition (Rattus norvegicus [21]): inactive | inhibition (Rattus norvegicus [22]): Active | inhibition (Mus musculus [23]): 22% | Ki [24]: 4200 nM | Activity (Mus musculus [25]): Toxic | Activity (Rattus norvegicus [26]): 6 Hz | inhibition (Rattus norvegicus [27]): inactive | inhibition (Mus musculus [28]): 71%

Cl.Cn1c(=N)c2[nH]c(=O)[nH]c2n(C)c1=O
Activity (Mus musculus [29]): Toxic | Activity (Mus musculus [8]): 54 nmol | Activity (Mus musculus [30]): Toxic | Activity (Mus musculus [31]): Toxic | Activity (Mus musculus [32]): Toxic

Cl.Cn1c(=O)[nH]c(=N)c2[nH]c(=O)n(C)c21
Activity (Mus musculus [33]): Toxic

Cl.Cn1c(=O)[nH]c2c(=N)[nH]c(=O)[nH]c21
Activity (Mus musculus [34]): Toxic | Activity (Mus musculus [8]): 18 nmol | Activity (Mus musculus [35]): Toxic | Activity (Mus musculus [36]): Toxic
